{"source": "patent US20200216492A1", "about": "“USE OF C-TERMINALLY EXTENDED PEPTIDES TO DISRUPT INHIBITOR NK CELL RECEPTOR INTERACTIONS WITH MHC I” (La Jolla Institute for Allergy and Immunology, priority 2016, published 2020)", "key": {"KIR2DL1-Fc": {"target": "KIR2DL1-Fc", "sequence (P43626 22-245 limits assumed)": "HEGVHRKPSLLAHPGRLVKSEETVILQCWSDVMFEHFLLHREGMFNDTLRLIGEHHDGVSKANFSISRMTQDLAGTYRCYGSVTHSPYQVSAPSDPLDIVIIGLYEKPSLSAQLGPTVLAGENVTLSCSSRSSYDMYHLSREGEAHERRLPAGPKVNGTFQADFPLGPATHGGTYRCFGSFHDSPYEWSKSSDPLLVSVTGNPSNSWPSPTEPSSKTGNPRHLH", "assay": "KIR2DL1-Fc binding to immobilized HLA-peptide complexes by BLI (Octet RED96)", "details": "2 μM KIR2DL1-Fc, biotinylated complex on SA sensor tip", "text": "Binding to buffer only was used for background subtraction.\nSynthetic DNA constructs of KIR3DL1 (HLA-B*57:01) and KIR2DL1 (HLA-C*04:01) are cloned and expressed as Fc-fusion constructs in SF9 insect cells. HLA-B*57:01 and […] are refolded with both core and extending peptides and captured on a Strepavidin sensor chip for SPR analysis or a SA sensor tip for BLI analysis as for HLA-A*02:01. […] KIRDL-Fc fusion proteins are, therefore, used to measure the binding affinity, since their bivalency will increase overall binding affinity. […] Further, KIRDL-Fc fusion proteins are immobilized using an anti-human Fc antibody capture chip (GE Healthcare) and the binding of HLA-tetramers to the immobilized KIRDL receptors measured. This increases affinity even further (tetra-valency versus bivalency). […] The C-terminally extended peptides all disrupt KIR2DL1 binding, regardless of whether they induce the “lysine lift” or the “tyrosine swing” (FIG. 19). […] This is proof of concept that structural alterations around the F pocket of HLA alleles that form the primary binding site for KIRL abrogate receptor binding."}, "HLA-C*03:07": {"target": "HLA-C*03:07 (Homo sapiens, UniProt P10321, A176E/A330V/A97T/C25G/C350S/D114A/D33Y/E197K/L119I/L127V/L171W/L218V/M285V/M309V/M331V/N104K/P208H/Q277E/Q291P/R243W/R45H/S101N/S123Y/S140Y/S297R/S48A/T118I/T187L/T329A/T363A/V319A)", "assay": "Refolding of HLA-C*03:07 with peptides (SEC, SDS-PAGE, MALDI-TOF)", "assay_type": "binding", "details": "gel filtration", "text": "Note that A280 scale is different between the three panels.\nCore peptides were chosen that have been crystallized in complex with HLA-B as well as HLA-C and designed variants containing C-terminal extensions (Table 3). […] HLA-C can be optimized while producing more HLA-B complexes for crystallization and structure determination using established methods. Crystallization is not major problem, since only HLA I-peptide complexes are crystallized and not ternary complexes containing a receptor. For HLA-A2*02:01, all 9 complexes were successfully crystallized thereby establishing a routine procedure. Structure determination is performed using molecular replacement (MR), using available reference structures."}, "HLA-A*02:01": {"target": "T1, HLA-A*02:01 (Homo sapiens, UniProt P04439, D140Y/D185E/D98H/E176V/E277Q/G131W/G231S/I119V/I121R/I166T/I218V/L300P/L318F/N151K/N90K/P208A/P217A/Q86G/Q94H/R138H/R169H/T345S)", "T1 construct": "HLA-A*02:01 class I heavy chain ectodomain (residues 21-274); made in house", "assay": "Thermal denaturation assay (differential scanning fluorimetry) of HLA-A*02:01-β2m-peptide complexes", "assay_type": "binding", "details": "for relative stability of HLA-peptide complex: thermal denaturation", "quoted_text": "HLA-A*02:01-β2m-peptide complexes with the various different peptides were analyzed for thermal denaturation by differential scanning fluorimetry using a LightCycler 480 (Roche). HLA-A*02:01-β2m-peptide complexes with different peptides at 100 μM in reaction buffer (20 mM Tris-HCl pH 7.5, 150 mM NaCl) were used as stock solutions. Each reaction mixture constituted of 1-2 μl protein complex stock solution, 2l of SYPRO Orange dye (100×, Invitrogen) made up to 20 μl in reaction buffer in a 96-well white plate compatible with the instrument. A temperature gradient from 20° C.-85° C. at steps of 0.06° C./sec and 10 acquisitions/° C. was used for the experiment. Each experiment with individual protein-peptide complex was repeated thrice. A melt curve of the total fluorescence of the run was plotted against temperature. The minima of the first derivative of the melt curve from raw fluorescence data (temperature differential of absolute fluorescence versus temperature) provided the meting temperature (Tm) for individual HLA-A*02:01-β2m peptide complexes (inflection point of the melt curve).\nTo determine the relative stability of the individual HLA-A*02:01-peptide complexes the inventors followed their thermal denaturation by differential scanning fluorimetry. The melting temperatures (Tm) obtained from the melt curves allowed the inventors to compare the stability of the different complexes (FIG. 3)."}, "[1]": {"system": "KIR3DL1 expressing YTS cells", "assay": "HLA-B*57:01/peptide tetramer staining of KIR3DL1 transfected YTS cells (flow cytometry)", "assay_type": "cell-based", "details": "KIR3DL1 positive and negative YTS cells; 10, 50 and 100 μg/ml tetramer; 30 min on ice; preliminary study", "protocol": "KIR3DL1 negative (top) and positive (bottom) YTS cells were analyzed for their staining using the indicated HLA-B/peptide tetramer. Binding of the tetramer to KIR3DL1 negative cells likely indicates binding of the tetramer to another receptor, such as 2B4 and, therefore, different KIR transfected cells, such as K562 cells will be used next.\nIn parallel, whether the HLA-tetramers can stain K562 cells that have been transfected with the corresponding allele-matched KIRDL receptor is tested. Without being limited to any particular theory, it is expected that HLA tetramers presenting the core peptide will stain K562 cells, while staining with tetramers presenting the C-terminally extended peptides is greatly impaired and will overlap with the isotype control. Appropriate anti KIR antibodies are used as positive control (Anti-KIR3DL1 clone DX9 and anti-KIR2DL1 clone HP-MA4 from Biolegend). […]"}, "[2]": {"system": "HLA-B*58:02 transfected 721.221 cells", "assay": "Cytotoxicity assay using KIR3DL1 transfected YTS cells and peptide-pulsed 721.221 target cells", "assay_type": "cell-based", "details": "peptide 100 μM; KIR3DL1 YTS effectors; E:T 10:1; 2-4 hrs; preliminary study", "protocol": "The ability of KIR3DL1 or KIR2DL1 transfected YTS cells to kill HLA expressing 721.221 target cells is tested. Since YTS cells are devoid of any inhibitory KIR, expression of a single KIR will tolerize YTS cells against the 721.221 target cell expressing the allele-matched HLA-B*58:02 (instead of HLA-B*57:01 used for SPR and crystallography) or HLA-C*04:01. HLA-B*58:02 is identical in sequence in the binding region for KIR3DL1 and reported to bind KIR3DL1 allele. 721.221/HLA-C*04:01 cells expressing a TAP inhibitor as well as the corresponding KIR2DL1 YTS transfectants have been obtained. In these 721.221 cells, peptides have to be loaded on the empty HLA-C on the cell surface. The advantage of this system is that the degree of inhibition can be titrated using different concentration of peptides. Target cell killing is assessed using a europium-based fluorescence killing assay as described (67). In this setup, the antibody IPH2101 serves as a positive control for killing, and the efficacy of extending peptides to induce killing is compared. IPH2101 is expressed, for which the sequence is available (Patent application: PCT/US2013/063068), similar to Fc fusion proteins in insect cells. […]\nCytotoxicity assay using KIR transfected YTS cells (FIG. 21) has been established. […] Finally, fluorescence was measured in a Perkin Elmer EnVision™ time-resolved fluorometer. […]"}, "HLA-A*02:01 mutants": {"system": "HLA-A*02:01 mutants", "assay": "Refolding of HLA-A*02:01 position 80 mutants with extending peptides (SEC)", "assay_type": "binding", "details": "increase in incorrectly folded heavy chain as indicator, preliminary data", "quoted_text": "Refolding efficiency is judged by comparing peak high (at 45 kDa) with that of the preceding oligomeric peak.\nIt is possible that replacing T80 with amino acids Ile, Lys, and Asn as found in other common alleles may affect refolding. […] Whether a flexible F pocket in HLA-C*03:07 can be created was tested by exchange against the amino acids from HLA-A*02:01, either Thr80 or the combination of Thr80 and Thr142 together. Other amino acids at position 80 or mutate other alleles at position 80 and 142 were introduced as necessary."}}, "note": "“Also recorded” adds a separate entry of the source.", "data": [{"sequence": "YFDPANGKFK [Y10K]", "values": [{"measurement": "KIR2DL1-Fc binding to HLA-C*04:01-peptide complex", "setting": "KIR2DL1-Fc", "value": "abrogated"}]}, {"sequence": "GAVDPLLALD [G10D]", "values": [{"measurement": "refolding of HLA-C*03:07 with peptide", "setting": "HLA-C*03:07", "value": "protein complex of proper size was observed"}]}, {"sequence": "YLSPIASPLLDGKSLR [T. gondii C-terminally extending peptide]", "values": [{"measurement": "difference in Tm between complex with extended peptide and with nested peptide", "setting": "HLA-A*02:01; extended versus equivalent nested peptide", "value": "about 7 °C"}]}, {"sequence": "GLKEGIPAL", "values": [{"measurement": "melting temperature (Tm) of HLA-A*02:01-peptide complex", "setting": "HLA-A*02:01; differential scanning fluorimetry, SYPRO Orange, 20-85 °C", "value": 63, "unit": "°C"}, {"measurement": "relative stability of HLA-peptide complex", "setting": "HLA-A*02:01", "value": "less stable complex as compared to peptide GLLPELPAV; also recorded: as stable as those with longer peptides"}]}, {"sequence": "LSSPVTKSF [L9F, core self-peptide for HLA-B*57:01, reference compound]", "values": [{"measurement": "binding of Alexa Fluor-647 HLA-B*57:01/peptide tetramer to YTS cells", "setting": "[1]", "value": "bound to YTS cells, regardless whether KIR3DL1 was expressed or not"}, {"measurement": "KIR2DL1-Fc binding to allele-mismatched HLA-B*57:01-peptide complex", "setting": "KIR2DL1-Fc", "value": "does not bind"}]}, {"sequence": "LSSPVTKSFDGK [L12K]", "values": [{"measurement": "binding of Alexa Fluor-647 HLA-B*57:01/peptide tetramer to YTS cells", "setting": "[1]", "value": "bound to YTS cells, regardless whether KIR3DL1 was expressed or not"}, {"measurement": "induction of YTS NK cell killing of target cells", "setting": "[2]", "value": "induce YTS NK cell killing; also recorded: appears to induce killing"}]}, {"sequence": "YFDPANGKF [Y9F, reference compound]", "values": [{"measurement": "KIR2DL1-Fc binding to HLA-C*04:01-peptide complex", "setting": "KIR2DL1-Fc", "value": "strong binding signal"}]}, {"sequence": "GLKEGIPALDN [G11N, T. gondii C-terminally extending peptide]", "values": [{"measurement": "refolding efficiency of HLA-A*02:01 position 80 mutants with peptide (order of residues)", "setting": "HLA-A*02:01 mutants", "value": "Ile80 (HLA-B)>Thr80 (HLA-A)>Lys80 (HLA-C*04:01)>Asn80 (HLA-C*03:07)"}]}, {"sequence": "GAVDPLLAL [G9L, reference compound]", "values": [{"measurement": "refolding of HLA-C*03:07 with peptide", "setting": "HLA-C*03:07", "value": "protein complex of proper size was observed"}]}, {"sequence": "LSSPVTKSFK [L10K]", "values": [{"measurement": "induction of YTS NK cell killing of target cells", "setting": "[2]", "value": "does not induce any killing"}]}, {"sequence": "GLLPELPAVGGNE", "values": [{"measurement": "relative stability of HLA-peptide complex", "setting": "HLA-A*02:01", "value": "as stable as"}]}, {"sequence": "YFDPANGKFDN [Y11N]", "values": [{"measurement": "KIR2DL1-Fc binding to HLA-C*04:01-peptide complex", "setting": "KIR2DL1-Fc", "value": "abrogated"}]}]}
